Legend:
[1] = cited from earlier work
[2] = solubility in sterile distilled water; format: physicochemical; settings: thermodynamic from solid, read-out: maximum solubility
Source text: Sodium cromoglycate may be delivered from an implanted pump without the use of a catheter. For example, a DUROS® osmotic pump could be used. […] The formulation of sodium cromoglycate may then be loaded into a DUROS® pump under aseptic conditions. The pump is implanted in a subject, for instance subcutaneously in the upper arm, under local anesthetic and the drug would be released therefrom into the body of the subject. [formula]

[3] = test system: exercise-induced bronchoconstriction; settings: inhaled administration, plasma concentrations of 4-6 ng/ml; cited from earlier work

For `O=C(O)c1cc(=O)c2c(OCC(O)COc3cccc4oc(C(=O)O)cc(=O)c34)cccc2o1` [sodium cromoglycate, Sodium cromoglycate], the “bioavailability, inhaled” value ([1]; inhaled) is listed as 7.5%, the oral bioavailability ([1]; oral) is listed as “less than 1%” and the solubility [2] is listed as ~120 mg/mL. The “inhibition of exercise-induced bronchoconstriction” value [3] was 66%.

— patent publication US20040115236A1, “Devices and methods for management of inflammation” (priority 2000, published 2004)
